Reference: patent US12479847B2 (DANA-FARBER CANCER INSTITUTE, INC., priority 2019, dated 2025)

Assays:
Experiment in all cases: KINOMEscan (ScanMAX) kinase profiling
Assay type in all cases: binding
panel of 468 kinases [1] = target: T1, panel of 468 kinases (Homo sapiens, UniProt P51617); conditions: IRAK1; 1 μM; read-out: % control
T1 construct: purchased KINOMEscan (ScanMAX) service

panel of 468 kinases [2] = target: T2, panel of 468 kinases (Homo sapiens, UniProt Q9UPZ9); conditions: ICK; 1 μM; read-out: % control
T2 construct: purchased KINOMEscan (ScanMAX) service
T2 sequence (Q9UPZ9 1-632): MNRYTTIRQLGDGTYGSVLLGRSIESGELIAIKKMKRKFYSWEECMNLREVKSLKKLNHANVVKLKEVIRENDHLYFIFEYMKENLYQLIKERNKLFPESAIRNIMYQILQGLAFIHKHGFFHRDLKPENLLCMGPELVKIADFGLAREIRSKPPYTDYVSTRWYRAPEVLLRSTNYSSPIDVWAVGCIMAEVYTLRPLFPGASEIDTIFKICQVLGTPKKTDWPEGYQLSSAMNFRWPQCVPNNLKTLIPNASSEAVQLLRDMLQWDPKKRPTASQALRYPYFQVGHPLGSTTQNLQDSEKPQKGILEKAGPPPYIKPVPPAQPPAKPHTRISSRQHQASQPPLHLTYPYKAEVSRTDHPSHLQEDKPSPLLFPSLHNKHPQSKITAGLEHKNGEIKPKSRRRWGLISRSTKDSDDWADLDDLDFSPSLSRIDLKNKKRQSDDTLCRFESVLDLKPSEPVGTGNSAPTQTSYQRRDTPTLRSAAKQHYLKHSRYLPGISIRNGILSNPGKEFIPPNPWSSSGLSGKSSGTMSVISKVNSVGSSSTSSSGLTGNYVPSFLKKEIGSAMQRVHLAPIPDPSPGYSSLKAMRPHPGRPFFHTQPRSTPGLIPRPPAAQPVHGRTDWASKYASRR

panel of 468 kinases [3] = target: T3, panel of 468 kinases (Homo sapiens, UniProt Q5S007); conditions: LRRK2; 1 μM; read-out: % control
T3 construct: purchased KINOMEscan (ScanMAX) service

panel of 468 kinases [4] = target: T4, panel of 468 kinases (Homo sapiens, UniProt P78362); conditions: SRPK2; 1 μM; read-out: % control
T4 construct: purchased KINOMEscan (ScanMAX) service
T4 sequence (P78362 whole entry): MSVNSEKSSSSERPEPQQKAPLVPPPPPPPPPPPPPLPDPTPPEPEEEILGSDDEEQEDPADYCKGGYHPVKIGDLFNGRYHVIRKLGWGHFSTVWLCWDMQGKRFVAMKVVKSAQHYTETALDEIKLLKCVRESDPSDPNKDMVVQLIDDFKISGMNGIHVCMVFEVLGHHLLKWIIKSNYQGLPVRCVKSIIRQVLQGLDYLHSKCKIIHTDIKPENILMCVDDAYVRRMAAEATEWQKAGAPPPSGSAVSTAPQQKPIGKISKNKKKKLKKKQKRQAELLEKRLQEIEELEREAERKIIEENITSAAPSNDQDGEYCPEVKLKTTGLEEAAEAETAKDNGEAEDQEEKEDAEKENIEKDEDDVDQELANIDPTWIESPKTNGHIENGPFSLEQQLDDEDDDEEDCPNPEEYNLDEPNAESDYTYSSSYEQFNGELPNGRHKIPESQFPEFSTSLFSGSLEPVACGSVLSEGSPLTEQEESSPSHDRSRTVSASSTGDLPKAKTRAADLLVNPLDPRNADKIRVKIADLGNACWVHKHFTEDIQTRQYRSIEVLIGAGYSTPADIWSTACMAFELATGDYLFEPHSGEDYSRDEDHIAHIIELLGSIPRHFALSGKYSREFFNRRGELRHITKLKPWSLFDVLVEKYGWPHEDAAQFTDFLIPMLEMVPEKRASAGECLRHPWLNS

panel of 468 kinases [5] = target: T5, panel of 468 kinases (Homo sapiens, UniProt P42336, H1047Y); conditions: PIK3CA(H1047Y); 1 μM; read-out: % control
T5 construct: purchased KINOMEscan (ScanMAX) service
T5 sequence (P42336 whole entry H1047Y): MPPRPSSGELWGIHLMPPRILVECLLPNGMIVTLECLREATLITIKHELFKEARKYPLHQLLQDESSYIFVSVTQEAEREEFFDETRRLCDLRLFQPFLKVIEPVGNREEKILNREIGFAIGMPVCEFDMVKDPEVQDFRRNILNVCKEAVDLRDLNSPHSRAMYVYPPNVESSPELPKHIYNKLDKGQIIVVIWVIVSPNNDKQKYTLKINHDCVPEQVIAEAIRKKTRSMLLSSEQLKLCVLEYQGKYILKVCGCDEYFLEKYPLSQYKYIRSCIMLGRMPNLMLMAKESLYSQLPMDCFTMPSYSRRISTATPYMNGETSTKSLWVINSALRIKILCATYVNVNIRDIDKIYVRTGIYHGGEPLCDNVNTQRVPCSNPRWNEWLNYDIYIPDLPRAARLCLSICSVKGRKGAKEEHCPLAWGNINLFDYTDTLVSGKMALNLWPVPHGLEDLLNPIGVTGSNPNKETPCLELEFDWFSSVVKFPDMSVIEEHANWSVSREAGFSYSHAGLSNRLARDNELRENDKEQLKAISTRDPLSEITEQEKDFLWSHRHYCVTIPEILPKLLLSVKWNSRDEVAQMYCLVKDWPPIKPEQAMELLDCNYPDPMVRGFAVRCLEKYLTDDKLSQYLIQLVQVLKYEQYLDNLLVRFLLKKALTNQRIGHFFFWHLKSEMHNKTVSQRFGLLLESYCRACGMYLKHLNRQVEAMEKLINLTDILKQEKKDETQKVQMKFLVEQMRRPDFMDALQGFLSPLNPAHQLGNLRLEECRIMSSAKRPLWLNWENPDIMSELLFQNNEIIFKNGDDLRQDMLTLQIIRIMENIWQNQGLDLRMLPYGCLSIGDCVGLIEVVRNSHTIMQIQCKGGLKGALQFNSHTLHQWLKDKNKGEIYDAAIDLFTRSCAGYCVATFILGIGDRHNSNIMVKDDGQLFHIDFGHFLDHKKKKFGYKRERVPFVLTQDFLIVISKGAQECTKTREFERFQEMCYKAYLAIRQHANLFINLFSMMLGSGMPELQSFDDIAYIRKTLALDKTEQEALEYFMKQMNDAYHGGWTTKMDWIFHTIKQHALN

panel of 468 kinases [6] = target: T6, panel of 468 kinases (Homo sapiens, UniProt Q13163); conditions: MEK5; 1 μM; read-out: % control
T6 construct: purchased KINOMEscan (ScanMAX) service
T6 sequence (Q13163 1-448): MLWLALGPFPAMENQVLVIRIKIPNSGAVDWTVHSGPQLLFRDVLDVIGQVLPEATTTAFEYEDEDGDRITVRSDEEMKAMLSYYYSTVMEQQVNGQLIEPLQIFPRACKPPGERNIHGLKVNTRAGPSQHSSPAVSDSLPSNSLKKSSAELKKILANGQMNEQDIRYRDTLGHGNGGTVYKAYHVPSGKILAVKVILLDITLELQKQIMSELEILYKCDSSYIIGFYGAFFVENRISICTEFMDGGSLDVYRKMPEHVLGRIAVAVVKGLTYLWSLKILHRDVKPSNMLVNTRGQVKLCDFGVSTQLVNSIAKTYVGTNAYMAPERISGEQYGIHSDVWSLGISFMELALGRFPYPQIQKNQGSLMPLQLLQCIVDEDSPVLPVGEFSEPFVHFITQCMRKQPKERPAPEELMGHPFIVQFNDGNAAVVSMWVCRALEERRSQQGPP

panel of 468 kinases [7] = target: T7, panel of 468 kinases (Homo sapiens, UniProt P43405); conditions: SYK; 1 μM; read-out: % control
T7 construct: purchased KINOMEscan (ScanMAX) service

panel of 468 kinases [8] = target: T8, panel of 468 kinases (Homo sapiens, UniProt Q9H422); conditions: HIPK3; 1 μM; read-out: % control
T8 construct: purchased KINOMEscan (ScanMAX) service
T8 sequence (Q9H422 whole entry): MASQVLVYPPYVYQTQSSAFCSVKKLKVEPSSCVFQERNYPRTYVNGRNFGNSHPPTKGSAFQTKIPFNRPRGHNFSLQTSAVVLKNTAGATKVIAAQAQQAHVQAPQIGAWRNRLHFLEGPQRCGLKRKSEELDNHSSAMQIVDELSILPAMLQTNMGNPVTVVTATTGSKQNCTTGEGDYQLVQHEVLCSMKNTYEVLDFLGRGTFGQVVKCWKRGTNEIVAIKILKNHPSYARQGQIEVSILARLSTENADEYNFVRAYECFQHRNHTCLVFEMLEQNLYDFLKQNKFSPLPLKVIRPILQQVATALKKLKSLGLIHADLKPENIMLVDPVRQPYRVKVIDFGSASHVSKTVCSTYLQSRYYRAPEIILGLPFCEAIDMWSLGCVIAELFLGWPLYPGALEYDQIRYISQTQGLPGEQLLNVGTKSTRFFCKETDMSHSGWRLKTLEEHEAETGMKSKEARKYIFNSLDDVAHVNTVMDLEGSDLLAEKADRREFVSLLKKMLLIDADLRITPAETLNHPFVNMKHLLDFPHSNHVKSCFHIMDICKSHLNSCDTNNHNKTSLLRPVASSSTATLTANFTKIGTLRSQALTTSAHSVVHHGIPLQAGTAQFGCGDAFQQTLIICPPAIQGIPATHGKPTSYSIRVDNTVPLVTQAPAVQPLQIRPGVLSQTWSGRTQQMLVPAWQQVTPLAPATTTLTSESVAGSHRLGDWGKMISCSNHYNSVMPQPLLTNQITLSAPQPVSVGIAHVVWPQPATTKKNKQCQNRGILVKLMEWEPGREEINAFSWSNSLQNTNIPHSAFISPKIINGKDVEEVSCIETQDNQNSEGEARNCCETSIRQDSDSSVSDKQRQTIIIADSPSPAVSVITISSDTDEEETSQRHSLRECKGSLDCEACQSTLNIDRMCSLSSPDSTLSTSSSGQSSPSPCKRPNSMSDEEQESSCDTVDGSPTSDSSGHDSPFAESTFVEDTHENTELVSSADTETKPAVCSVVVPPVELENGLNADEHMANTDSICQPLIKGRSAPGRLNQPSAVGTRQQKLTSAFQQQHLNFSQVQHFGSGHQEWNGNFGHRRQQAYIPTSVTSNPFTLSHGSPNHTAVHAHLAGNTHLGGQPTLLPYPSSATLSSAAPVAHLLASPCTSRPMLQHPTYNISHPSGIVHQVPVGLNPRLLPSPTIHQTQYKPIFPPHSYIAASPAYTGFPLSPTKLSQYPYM

panel of 468 kinases [9] = target: T9, panel of 468 kinases (Homo sapiens, UniProt P24941); conditions: CDK2; 1 μM; read-out: % control
T9 construct: purchased KINOMEscan (ScanMAX) service

panel of 468 kinases [10] = target: T10, panel of 468 kinases (Homo sapiens, UniProt Q8NI60); conditions: ADCK3; 1 μM; read-out: % control
T10 construct: purchased KINOMEscan (ScanMAX) service
T10 sequence (Q8NI60 163-647): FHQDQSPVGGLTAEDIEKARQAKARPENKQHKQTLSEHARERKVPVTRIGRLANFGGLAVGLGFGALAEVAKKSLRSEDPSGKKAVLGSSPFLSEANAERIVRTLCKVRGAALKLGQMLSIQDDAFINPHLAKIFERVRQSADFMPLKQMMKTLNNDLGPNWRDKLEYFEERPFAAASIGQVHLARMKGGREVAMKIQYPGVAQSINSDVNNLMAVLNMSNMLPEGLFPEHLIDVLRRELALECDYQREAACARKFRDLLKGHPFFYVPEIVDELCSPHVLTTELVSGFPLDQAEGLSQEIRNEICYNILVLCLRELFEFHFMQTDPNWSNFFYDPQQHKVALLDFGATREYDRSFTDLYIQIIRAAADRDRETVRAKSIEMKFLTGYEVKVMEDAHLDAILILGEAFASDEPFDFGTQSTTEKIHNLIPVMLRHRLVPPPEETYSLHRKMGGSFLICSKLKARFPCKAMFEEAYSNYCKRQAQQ

panel of 468 kinases [11] = target: T11, panel of 468 kinases (Homo sapiens, UniProt P20794); conditions: MAK; 1 μM; read-out: % control
T11 construct: purchased KINOMEscan (ScanMAX) service
T11 sequence (P20794 1-623): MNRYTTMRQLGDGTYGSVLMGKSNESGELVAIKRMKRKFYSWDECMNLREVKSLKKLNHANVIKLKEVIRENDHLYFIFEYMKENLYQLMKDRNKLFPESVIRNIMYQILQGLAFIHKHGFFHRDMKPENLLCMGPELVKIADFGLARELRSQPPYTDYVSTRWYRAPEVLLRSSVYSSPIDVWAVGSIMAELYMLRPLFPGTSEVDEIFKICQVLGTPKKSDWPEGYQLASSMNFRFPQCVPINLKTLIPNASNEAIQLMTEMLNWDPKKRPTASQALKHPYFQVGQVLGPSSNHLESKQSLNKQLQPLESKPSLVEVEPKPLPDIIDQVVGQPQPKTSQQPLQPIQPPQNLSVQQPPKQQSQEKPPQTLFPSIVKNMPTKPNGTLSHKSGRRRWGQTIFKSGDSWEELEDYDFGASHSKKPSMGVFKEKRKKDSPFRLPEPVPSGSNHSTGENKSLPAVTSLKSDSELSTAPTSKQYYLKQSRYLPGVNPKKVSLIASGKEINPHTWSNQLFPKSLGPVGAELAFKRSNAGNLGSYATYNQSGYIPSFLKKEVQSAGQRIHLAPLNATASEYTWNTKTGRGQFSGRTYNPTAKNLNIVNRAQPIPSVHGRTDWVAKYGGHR

T1 sequence (P51617 whole entry): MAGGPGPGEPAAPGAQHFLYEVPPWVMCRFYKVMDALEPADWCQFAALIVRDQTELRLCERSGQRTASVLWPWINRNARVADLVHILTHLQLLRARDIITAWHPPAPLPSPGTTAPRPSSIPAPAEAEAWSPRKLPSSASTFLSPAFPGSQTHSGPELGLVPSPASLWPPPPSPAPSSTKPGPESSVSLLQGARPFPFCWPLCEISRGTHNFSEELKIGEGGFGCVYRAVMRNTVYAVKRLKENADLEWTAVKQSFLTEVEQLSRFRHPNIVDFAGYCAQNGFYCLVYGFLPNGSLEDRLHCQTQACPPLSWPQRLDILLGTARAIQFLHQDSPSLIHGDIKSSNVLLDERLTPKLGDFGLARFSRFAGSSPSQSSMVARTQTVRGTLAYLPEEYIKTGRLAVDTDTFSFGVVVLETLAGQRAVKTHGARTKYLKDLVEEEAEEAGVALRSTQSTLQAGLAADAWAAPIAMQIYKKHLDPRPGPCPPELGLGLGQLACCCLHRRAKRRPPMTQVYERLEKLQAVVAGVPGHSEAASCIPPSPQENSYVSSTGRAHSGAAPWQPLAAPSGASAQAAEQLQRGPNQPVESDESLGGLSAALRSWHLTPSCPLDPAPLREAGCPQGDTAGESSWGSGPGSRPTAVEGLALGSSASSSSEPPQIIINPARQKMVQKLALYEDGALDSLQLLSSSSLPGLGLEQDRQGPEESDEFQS

| SMILES | remaining binding at 1 µM (panel of 468 kinases [1]) [%] | remaining binding at 1 µM (panel of 468 kinases [2]) [%] | remaining binding at 1 µM (panel of 468 kinases [3]) [%] | remaining binding at 1 µM (panel of 468 kinases [4]) [%] | remaining binding at 1 µM (panel of 468 kinases [5]) [%] | remaining binding at 1 µM (panel of 468 kinases [6]) [%] | remaining binding at 1 µM (panel of 468 kinases [7]) [%] | remaining binding at 1 µM (panel of 468 kinases [8]) [%] | remaining binding at 1 µM (panel of 468 kinases [9]) [%] | remaining binding at 1 µM (panel of 468 kinases [10]) [%] | remaining binding at 1 µM (panel of 468 kinases [11]) [%] |
| --- | --- | --- | --- | --- | --- | --- | --- | --- | --- | --- | --- |
| CNc1nc(Nc2ccc(S(=O)(=O)N3CCC(N4CCOCC4)CC3)cc2OC)nc2[nH]cc(Cl)c12 [Compound 12, 5-chloro-N2-(2-methoxy-4-((4-morpholinopiperidin-1-yl)sulfonyl)phenyl)-N4-methyl-7H-pyrrolo[2,3-d]pyrimidine-2,4-diamine] | 92 | 77 | 0.8 | 100 | 64 | 86 | 55 | 72 | 100 | 100 | 100 |
| CNc1nc(Nc2ccc(C(=O)N3CCC(N4CCOCC4)CC3)c3c2OCO3)nc2[nH]cc(Cl)c12 [Compound 75, (7-((5-chloro-4-(methylamino)-7H-pyrrolo[2,3-d]pyrimidin-2-yl)amino)benzo[d][1,3]dioxol-4-yl)(4-morpholinopiperidin-1-yl)methanone] | 51 | 89 | 1.4 | 95 | 68 | 47 | 35 | 59 | 100 | 100 | 100 |
| CNc1nc(Nc2ccc(P3(=O)CCN(C4CCOCC4)CC3)cc2OC)nc2[nH]cc(Cl)c12 [Compound 77, 4-(4-((5-chloro-4-(methylamino)-7H-pyrrolo[2,3-d]pyrimidin-2-yl)amino)-3-methoxyphenyl)-1-(tetrahydro-2H-pyran-4-yl)-1,4-azaphosphinane 4-oxide] | 88 | 85 | 0.4 | 84 | 73 | 61 | 43 | 64 | 100 | 100 | 100 |
